Patent US20230393120A1, “A HUMAN VASCULAR INJURY-ON-A-CHIP MODEL OF HEMOSTASIS” (THE TRUSTEES OF THE UNIVERSITY OF PENNSYLVANIA, priority 2020, published 2023)
Where a SMILES comes first, the peptide text is derived from it. Bridges are numbered along the chain shown (N, C = ends). [ ]: non-standard residue; d: D form. hArg = N=C(N)NCCCC[C@H](N)C(=O)O; Mpa = O=C(O)CCS

Test system: injury-induced platelet and fibrin deposition (hemostatic plug formation), human whole blood
Assay: Drug testing in the vascular injury-on-a-chip perfused with drug-containing whole blood
Format: cell-based
Source text: Human vascular injury-on-a-chip as a drug screening platform: anticoagulants and antiplatelet agents can be used for treating or preventing thrombotic events in the arterial and venous circulations. However, anticoagulants and antiplatelet agents can increase the risk of bleeding, especially when used in combination. The disclosed vascular injury-on-a-chip model provides a potential tool for evaluating these adverse effects, offering a complementary approach to animal models. Such features were tested using Hirudin and eptifibatide as model compounds representing anticoagulant and antiplatelet drugs, respectively. The disclosed subject matter was used to measure and compare the extent of injury-induced platelet and fibrin deposition when the disclosed devices were perfused with drug-containing whole blood. […] For quantitative analysis, we devised an injury closure score ranging between 0 and 2, which corresponds to fully open and fully closed, respectively. The hirudin-treated devices yielded an average score of […] the untreated control group scored 1.138. (FIG. 5E), indicating the adverse effects of Hirudin on the formation of competent hemostatic plugs.
Preparation of blood vessel-on-a-chip: Assembled devices were autoclaved for sterilization prior to cell culture. To increase the strength of interfacial adhesion between collagen gel and PDMS, dopamine hydrochloride (Sigma-Aldrich) solution (2.0 mg/mL w/v in 10 mM Tris-HCl buffer, pH 8.5) was injected into the middle compartment of the device and incubated for 2 hours at room temperature. Next, 6 mg/ml of rat-tail collagen type I containing 2.5% (v/v) lipidated tissue factor (Dade Innovin Reagent, Siemens) was introduced into the polydopamine-treated chamber and polymerized at 37° C. for 30 minutes. After gelation, HUVECs suspended in EGM-2 medium were seeded into the intravascular channel at a density of 1.6-1.8×10^6 cells/ml and allowed to settle and adhere to the surface of the collagen hydrogel by rotating the device by 90°. Following cell attachment, the device was perfused with medium to form a confluent endothelial monolayer. For TNF-a experiments, HUVECs were seeded on a tissue factor-free collagen gel and treated overnight with 1 ng/ml of TNF-a (Peprotech).
Healthy donor blood preparation: The blood was obtained via venipuncture into a syringe containing 3.8% sodium citrate (9:1) and 40 μg/ml of corn trypsin inhibitor (CTI). Right before perfusion through the device, the blood was recalcified (15 mM CaCl2) for 3 minutes. Fluorescently-labeled antibodies to detect platelets (a-CD61-568), P-selectin (a-CD62P-647), and fibrin (a-Fibrin-488) were added at a final concentration of 1 μg/ml. If inhibitors were used in the experiment, they were added in the recalcification step as well. The final concentration for eptifibatide acetate was 100 μM, and for Hirudin was 4 μg/ml.
Puncture injury and global hemostasis assessment: For precise spatial control of injury, a 30 G blunt needle was inserted between the two PM DS channel layers during device assembly and used as a sheath that guides the insertion of a microneedle. To induce puncture injury, either a 0.12 or 0.20 mm acupuncture needle was inserted into the guide needle and gently pushed towards the extravascular compartments in a controlled manner either to pierce through the endothelium and the entire thickness of the collagen hydrogel or to superficially injure the endothelial layer. Following injury, the intravascular and extravascular channels were perfused with recalcified blood and HBSS buffer (20 mM HEPES, 2 mM Ca2+), respectively using two independently controlled syringe pumps (Fusion 400, Chemyx & BS-8000 120 V, Braintree Scientific).
Fluorescently-labeled antibodies to CD61, P-selectin, and fibrin were added to the blood prior to perfusion through the microfluidic device to visualize platelet deposition, platelet activation, and fibrin accumulation. […]

Molecule	contraction of the vessel wall (matrix deformation, normalized injury area over time) (eptifibatide 100 μM)	platelet activation (eptifibatide 100 μM in whole blood)	fibrin accumulation (eptifibatide 100 μM in whole blood, relative to control)	platelet accumulation (eptifibatide 100 μM in whole blood, vs control)	injury channel closure, compared with Hirudin (eptifibatide 100 μM vs Hirudin 4 μg/ml)	state of the injury channel (eptifibatide 100 μM, confocal images)	injury score (0 fully open, 1 partially closed, 2 fully closed) (eptifibatide 100 μM, final time point)	fibrin accumulation (Hirudin 4 μg/ml in whole blood, vs control)	platelet accumulation (Hirudin 4 μg/ml in whole blood, vs control without the drug)	platelet activation (Hirudin 4 μg/ml in whole blood, vs control without the drug, P-selectin MFI)	state of the injury channel openings (Hirudin 4 μg/ml, confocal images)	injury closure (injury closure score 0-2, fully open to fully closed) (Hirudin 4 μg/ml, final time point)
N=C(N)NCCCC[C@@H]1NC(=O)CCSSC[C@@H](C(N)=O)NC(=O)[C@@H]2CCCN2C(=O)[C@H](Cc2c[nH]c3ccccc23)NC(=O)[C@H](CC(=O)O)NC(=O)CNC1=O [eptifibatide] ([Mpa][hArg]GDWPC-NH2; disulfide 1-7)	negligible contraction	reduction	did not change	markedly reduce	to a greater extent than Hirudin	remained open	0	–	–	–	–	–
Hirudin	–	–	–	–	–	–	–	drastically reduce	no statistically significant changes	no statistically significant changes	intravascular end of the injury channel remained open, but platelet aggregates blocked the extravascular opening	inhibits
